Experimental data: ChEMBL document CHEMBL1201862, “PubChem BioAssay data set” (2004)
The source made the active and inactive calls.

Columns and labels:
[1] = molecular target: Heat shock protein HSP 90-alpha (Homo sapiens, UniProt P07900); assay type: functional, organism-based
[2] = THP-1 cell cytotoxicity, dose response, cytotoxicity control for non-replicating M. tuberculosis project (AID 489025); assay type: functional
INS1 = assay: INS-1E survival protection against cytokine death – cell-based, luminescence, retest, dose response (AID 449756); assay type: functional; details: Rattus norvegicus;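 also: cell death triggered by IL-1 beta plus TNF-alpha plus IFN-gamma mixture; protective hits raise ATP signal compared with cytokine alone wells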
[3] = Luminescent dose response cell-based high throughput screening assay for inhibitors of the Janus kinase 2 mutant JAK2V617F. [Related pubchem assays: 1446 (Primary screen.), 1521 (Confirmation assay.), 1486 (Counter screen.)]; assay type: functional
[4] = Vero E6 cell cytotoxicity, dose response, cytotoxicity control for non-replicating M. tuberculosis project, secondary assay (AID 492998); assay type: functional, VeroE6; details: Vero C1008
[5] = HepG2 cell cytotoxicity, dose response, cytotoxicity control for non-replicating M. tuberculosis project (AID 489018); assay type: functional; details: Mycobacterium tuberculosis
cells [6] = assay type: functional
[7] = fluconazole-exposed Candida albicans growth modulators – fluorescence, retest, confirmation (AID 2467); assay type: functional, cell-based
[8] = NIH-3T3 fibroblast cytotoxicity, dose response, cytotoxicity control, cell-based, fluorescence, Alamar Blue, secondary assay (AID 2327); assay type: functional;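 also: NIH-3T3 mouse fibroblasts cultured with fluconazole at 8 µg/mL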
Vero [9] = assay: cells; assay type: functional; details: Chlorocebus sabaeus
[10] = molecular target: Serine/threonine-protein phosphatase (Homo sapiens, UniProt Q9BPW0); assay: inhibition of protein phosphatase 5 activity – biochemical, fluorescence, dose response (AID 2395)
[11] = molecular target: Serine/threonine-protein phosphatase PP1-alpha catalytic subunit (Homo sapiens, UniProt P62136); assay: inhibition of protein phosphatase 1 activity – biochemical, fluorescence, dose response (AID 2394)
Vero [12] = assay: mammalian cell viability reduction – secondary assay, cytotoxicity control for West Nile virus antiviral project, dose response (AID 1650); assay type: functional; details: Chlorocebus sabaeus
Vero [13] = assay: cells; assay type: functional, cell-based; details: Chlorocebus sabaeus
[14] = viability of uninfected HEp-2 cells – cell-based, HTS, cytotoxicity control for RSV inhibitor project, dose response (AID 2410); assay type: functional; details: human respiratory syncytial virus
[15] = molecular target: T1, Microphthalmia-associated transcription factor (Homo sapiens, UniProt O75030); assay: reducers of TRPM1 reporter luminescence, concentration series – cell-based, SK-MEL-5, cherry-picked, set 3, MITF inhibitor project, dose response (AID 493073); assay type: functional;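 also: SK-MEL-5 melanoma cells with luciferase driven by the MITF target TRPM1 promoter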
T1 sequence (O75030 whole entry): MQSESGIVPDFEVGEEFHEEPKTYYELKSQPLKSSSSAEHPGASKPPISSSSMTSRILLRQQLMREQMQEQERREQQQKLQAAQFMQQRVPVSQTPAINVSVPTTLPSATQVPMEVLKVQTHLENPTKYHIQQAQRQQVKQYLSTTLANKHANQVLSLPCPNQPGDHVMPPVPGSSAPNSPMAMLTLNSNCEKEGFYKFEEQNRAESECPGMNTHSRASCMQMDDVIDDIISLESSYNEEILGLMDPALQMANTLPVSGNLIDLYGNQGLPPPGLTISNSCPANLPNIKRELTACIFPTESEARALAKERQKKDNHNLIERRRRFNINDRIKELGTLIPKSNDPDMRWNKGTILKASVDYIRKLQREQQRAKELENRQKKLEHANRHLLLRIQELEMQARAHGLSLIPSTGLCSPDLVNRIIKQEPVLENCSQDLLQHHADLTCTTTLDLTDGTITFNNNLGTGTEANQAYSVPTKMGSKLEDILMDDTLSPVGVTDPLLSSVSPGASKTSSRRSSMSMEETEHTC

Vero [16] = assay: inhibition of WNV-induced cytopathic effect – cell-based, CPE readout (AID 1621); assay type: functional; details: Chlorocebus sabaeus
[17] = molecular target: T2, Tyrosine-protein phosphatase non-receptor type 22 (Homo sapiens, UniProt Q9Y2R2); assay: inhibition of lymphoid tyrosine phosphatase LYP – biochemical, pCAP fluorogenic substrate, fluorescence, set 3, SAR follow-up (AID 449727); assay type: functional
T2 sequence (Q9Y2R2 whole entry): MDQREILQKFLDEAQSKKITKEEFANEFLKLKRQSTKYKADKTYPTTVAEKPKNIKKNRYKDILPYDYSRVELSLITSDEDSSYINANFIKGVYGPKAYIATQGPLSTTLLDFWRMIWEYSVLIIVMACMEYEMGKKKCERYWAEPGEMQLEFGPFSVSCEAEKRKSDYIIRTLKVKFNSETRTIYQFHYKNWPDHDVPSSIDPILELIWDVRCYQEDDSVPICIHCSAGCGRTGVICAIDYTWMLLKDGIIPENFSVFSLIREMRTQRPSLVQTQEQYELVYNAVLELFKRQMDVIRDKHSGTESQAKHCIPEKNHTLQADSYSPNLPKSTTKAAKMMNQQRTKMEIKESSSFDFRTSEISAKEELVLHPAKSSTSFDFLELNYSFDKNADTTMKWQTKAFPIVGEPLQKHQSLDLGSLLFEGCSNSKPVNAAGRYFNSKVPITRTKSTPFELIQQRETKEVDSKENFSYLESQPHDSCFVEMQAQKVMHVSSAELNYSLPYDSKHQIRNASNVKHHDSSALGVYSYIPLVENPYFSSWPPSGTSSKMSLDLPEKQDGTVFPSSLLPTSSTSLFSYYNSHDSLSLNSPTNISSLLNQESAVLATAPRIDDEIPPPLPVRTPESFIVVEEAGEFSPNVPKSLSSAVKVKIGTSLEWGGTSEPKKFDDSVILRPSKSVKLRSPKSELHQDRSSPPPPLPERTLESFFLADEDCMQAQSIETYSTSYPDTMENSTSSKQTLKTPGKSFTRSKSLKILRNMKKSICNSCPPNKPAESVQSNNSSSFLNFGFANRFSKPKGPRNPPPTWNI

[18] = molecular target: G-protein coupled receptor 35 (Homo sapiens, UniProt Q9HC97); assay: SAR Analysis for the identification of Selective Antagonists of ERK1/2 Activity in GPR35-Overexpressing U2OS Cells. [Related pubchem assays: 2079, 2058 ]; assay type: functional, cell-based
[19] = molecular target: Tyrosine-protein phosphatase non-receptor type 12 (Homo sapiens, UniProt Q05209); assay: SAR Selectivity Analysis of small molecule inhibitors of PEST using pCAP in a fluorescence assay. [Related pubchem assays (depositor defined):AID1779, AID1784, AID2135]; assay type: functional
[20] = molecular target: G-protein coupled receptor 55 (Homo sapiens, UniProt Q9Y2T6); assay: blockers of GPR55 signalling, imaged – imaging, image-based, counter-screen for GPR35 antagonist project, SAR follow-up (AID 2397); assay type: functional
[21] = molecular target: T2, Tyrosine-protein phosphatase non-receptor type 22; assay: SAR LYP1 Fluorescent Assay using OMFP substrate for In Vitro dose response studies - Set 3. [Related pubchem assays (depositor defined):AID1779, AID1784, AID2140, AID2686]; assay type: functional
[22] = molecular target: T3, Tyrosine-protein phosphatase non-receptor type 7 (Homo sapiens, UniProt P35236); assay: inhibition of hematopoietic tyrosine phosphatase HePTP – biochemical, set 2, SAR follow-up (AID 449736); assay type: functional
T3 sequence (P35236 whole entry): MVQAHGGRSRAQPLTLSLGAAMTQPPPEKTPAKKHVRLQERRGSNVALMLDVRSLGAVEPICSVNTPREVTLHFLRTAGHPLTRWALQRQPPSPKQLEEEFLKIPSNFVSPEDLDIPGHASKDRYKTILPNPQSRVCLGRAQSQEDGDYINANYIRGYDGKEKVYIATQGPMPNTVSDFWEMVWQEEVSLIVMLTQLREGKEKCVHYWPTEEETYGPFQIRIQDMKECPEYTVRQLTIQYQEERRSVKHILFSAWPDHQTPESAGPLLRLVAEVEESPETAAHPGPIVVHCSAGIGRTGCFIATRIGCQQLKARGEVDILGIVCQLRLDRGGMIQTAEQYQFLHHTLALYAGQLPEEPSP

NADPH oxidase 1 = NADPH oxidase 1 (Homo sapiens, UniProt Q9Y5S8); assay: Late-stage luminescence-based cell-based dose response assay to identify inhibitors of NADPH oxidase 1 (NOX1): Purchased analogs 2.; assay type: functional
[23] = molecular target: T4, Low molecular weight phosphotyrosine protein phosphatase (Homo sapiens, UniProt P24666); assay: inhibition of human LMPTP enzyme activity – biochemical, absorbance, pNPP substrate, LMPTP-A isoform, set 2, orthogonal assay, dose response (AID 743308); assay type: functional
T4 sequence (P24666 whole entry): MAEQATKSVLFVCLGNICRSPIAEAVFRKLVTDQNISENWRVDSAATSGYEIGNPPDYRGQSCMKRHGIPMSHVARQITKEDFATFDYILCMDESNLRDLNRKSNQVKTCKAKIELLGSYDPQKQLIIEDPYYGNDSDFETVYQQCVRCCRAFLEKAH

[24] = molecular target: T4, Low molecular weight phosphotyrosine protein phosphatase; assay: inhibition of LMPTP-A enzymatic activity – biochemical, OMFP substrate, fluorescence intensity, set 2, dose response (AID 743307); assay type: functional
Leucine aminopeptidase = molecular target: T5, Leucine aminopeptidase (Plasmodium falciparum 3D7, UniProt Q8IL11); assay: P. falciparum M17LAP inhibitors, primary screen, biochemical, fluorogenic H-Leu-NHMec substrate, 1536-well (AID 1619); assay type: functional
T5 sequence (Q8IL11 whole entry): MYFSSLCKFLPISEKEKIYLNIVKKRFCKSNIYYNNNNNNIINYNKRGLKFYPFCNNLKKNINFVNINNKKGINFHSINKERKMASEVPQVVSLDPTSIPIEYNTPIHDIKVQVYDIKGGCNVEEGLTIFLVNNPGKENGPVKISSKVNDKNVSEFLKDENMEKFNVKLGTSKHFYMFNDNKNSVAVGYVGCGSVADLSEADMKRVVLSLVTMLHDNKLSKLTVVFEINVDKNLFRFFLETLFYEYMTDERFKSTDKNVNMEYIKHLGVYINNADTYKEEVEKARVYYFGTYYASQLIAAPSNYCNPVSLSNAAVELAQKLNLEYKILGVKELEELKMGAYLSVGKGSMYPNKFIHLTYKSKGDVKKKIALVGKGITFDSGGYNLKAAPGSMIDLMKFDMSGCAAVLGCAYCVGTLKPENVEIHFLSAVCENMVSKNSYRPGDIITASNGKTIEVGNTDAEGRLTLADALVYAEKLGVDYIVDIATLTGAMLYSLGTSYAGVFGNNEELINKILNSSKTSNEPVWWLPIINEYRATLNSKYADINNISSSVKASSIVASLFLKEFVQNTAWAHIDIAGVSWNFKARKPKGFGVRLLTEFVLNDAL

[25] = molecular target: Mitogen-activated protein kinase 10 (Homo sapiens, UniProt P53779); assay: Dose response biochemical screening assay for inhibitors of c-Jun N-Terminal Kinase 3 (JNK3). [Related pubchem assays: 746 ]
Major prion protein = Major prion protein (Homo sapiens, UniProt P04156); assay type: functional, cell-based
cells [26] = assay: cells
Ephrin type-A receptor 4 = Ephrin type-A receptor 4 (Mus musculus, UniProt Q03137); assay: EphA4 ligand-binding antagonists – biochemical, colorimetric, mouse EphA4, primary screen (AID 689); assay type: functional

In the case of COc1cccc(F)c1C(C[N+](=O)[O-])c1c(N)n(C)c(=O)n(C)c1=O (configuration not stated), the AC50 [1] is reported as 3.91 µM (active), the CC50 [2] is reported as 7.28 µM (active) and the AC50 (INS1) is reported as 7.85 µM (active). For the same compound, the IC50 [3] was 1.06 µM (active), the CC50 [4] was 4.73 µM (active) and the CC50 [5] was 16.2 µM (active). For the same compound, the IC50 (cells [6]) was 5.94 µM (active), the EC50 [7] was 0.779 µM (active) and the EC50 [8] was 5.27 µM (active). For the same compound, the CC50 (Vero [9]) was 8.24 µM (active).
In the case of COc1ccc(Cn2c(N)c(C(=O)NCc3ccco3)c3nc4ccccc4nc32)cc1OC, the IC50 [10] is reported as 46.5 µM (not active) and the IC50 [11] is reported as > 67 µM (not active).
For NCCCNc1nc(N)c([N+](=O)[O-])c(NC2CCCCC2)n1, the CC50 (Vero [12]) was 13.4 µM (active), the IC50 (Vero [13]) was 6 µM (active) and the CC50 [14] was 18.2 µM (active). The AC50 [15] was 6.36 µM (active), the IC50 (Vero [16]) was 8.89 µM (active) and the CC50 (Vero [9]) was 11.6 µM (active).
In the case of CCOC(=O)c1ccc(NC(=O)CCCN2C(=O)/C(=C/c3ccc(C)cc3)SC2=S)cc1, the IC50 [17] is reported as > 100 µM (inactive), the IC50 [18] is reported as 21.4 µM (not active) and the IC50 [19] is reported as 96.4 µM (active). For the same compound, the IC50 [20] was > 32 µM (inactive), the IC50 [21] was > 100 µM (inactive) and the IC50 [22] was > 100 µM (inactive).
For Fc1nc(F)c(F)c(N/N=C/c2ccc(Br)cc2)c1F, the IC50 (NADPH oxidase 1) was > 17 µM (not active).
In the case of c1ccc(-c2nc(N3CCCC3)c3ccccc3n2)cc1, the IC50 [23] is reported as > 80 µM (inactive) and the IC50 [24] is reported as 42.1 µM (inactive).
For N#Cc1c(O)nc(SCC(=O)Nc2cccc(Cl)c2)nc1-c1ccco1, the IC50 (Leucine aminopeptidase) was 2.5 µM (active), the IC50 [25] was 29.7 µM (not active) and the IC50 (Major prion protein) was 1.69 µM (active). The IC50 (cells [26]) was > 138 µM (inactive).
For Cc1cc(C=C2C(=O)N(C)C(=S)N(C)C2=O)c(C)n1C1CCCCC1, the IC50 (Ephrin type-A receptor 4) was 5.14 µM (active).
